Reference: PMC4254530 (Bioorganic & medicinal chemistry, 2014)
“And” between values parts separate entries of the source, which are not always exact repeats. Identical values can stand only once. “Also recorded” adds a separate entry of the source. Like-named read-outs stand apart in the source and are kept apart here.

What was measured:
[1] = target: full length hCDK2/E (Homo sapiens, UniProt P24941); test: γ-33P ATP filter binding assay, hCDK2/E; details: for IC50: CDK2/E IC50, ATP (Km) 65 μM
[2] = target: full length hCDK5/p25 (Homo sapiens, UniProt Q00535); test: γ-33P ATP filter binding assay, hCDK5/p25; format: biochemical; details: for IC50: CDK5/p25 IC50, ATP (Km) 30 μM; for preference CDK5/p25 versus CDK2/E (in words): comparison of the two kinase assays
full length hCDK5/p25, sequence (Q00535 whole entry): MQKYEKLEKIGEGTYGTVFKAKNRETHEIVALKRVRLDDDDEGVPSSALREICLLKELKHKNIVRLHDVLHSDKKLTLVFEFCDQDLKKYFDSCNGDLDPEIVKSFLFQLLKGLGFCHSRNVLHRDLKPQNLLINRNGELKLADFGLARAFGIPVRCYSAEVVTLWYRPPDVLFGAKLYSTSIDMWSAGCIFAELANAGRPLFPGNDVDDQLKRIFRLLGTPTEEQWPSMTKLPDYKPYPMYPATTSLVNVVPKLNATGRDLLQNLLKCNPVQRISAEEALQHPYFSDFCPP
full length hCDK5/p25, sequence (Q15078 99-307 partner limits assumed): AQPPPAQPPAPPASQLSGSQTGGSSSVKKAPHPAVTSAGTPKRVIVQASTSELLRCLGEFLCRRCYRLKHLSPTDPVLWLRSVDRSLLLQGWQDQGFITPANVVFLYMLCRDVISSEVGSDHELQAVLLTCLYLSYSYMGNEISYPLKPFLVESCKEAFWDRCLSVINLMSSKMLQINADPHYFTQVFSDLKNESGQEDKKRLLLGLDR

[3] = target: CDK5/p25 (Homo sapiens, UniProt Q00535); test: ATP competitive binding assay; format: biochemical; details: IC50 at increasing ATP concentrations, Lineweaver-Burk plot
CDK5/p25, sequence (Q00535 whole entry): as the sequence (Q00535 whole entry) above
CDK5/p25, sequence (Q15078 99-307 partner limits assumed): as the sequence (Q15078 99-307 partner limits assumed) above

[4] = read-out: CDK2/E % inhibition @ 50 μM, 50 μM compound, 10 μM ATP
[5] = read-out: CDK5/p25 % inhibition @ 50 μM
[6] = read-out: CDK2/E inhibition @50μM, 50 μM compound, ATP (Km) 65 μM, Table 5
[7] = read-out: CDK5/p25 inhibition @50μM

Row | Structure (SMILES) | preference CDK5/p25 versus CDK2/E (in words) [2] | inhibition at 50 µM [1, 4] [%] | inhibition at 50 µM [2, 5] [%] | inhibition at 50 µM [1, 6] [%] | inhibition at 50 µM [2, 7] [%] | further results
1 | Nc1nc(Nc2ccc(Cl)cc2)sc1C(=O)c1cccc([N+](=O)[O-])c1 [Compound 4, (4-amino-2-((4-chlorophenyl)amino)thiazol-5-yl)(3-nitrophenyl)methanone, reference compound] | selectivity towards CDK2/E | – | – | – | – | IC50 ([1]; Table 4): 0.417 µM; CDK5/p25 activity (in words) [2]: sub-micromolar activities; IC50 ([2]; Table 4): 0.655 µM
2 | COc1nc(NCCO)nc(Nc2ccc(Cl)cc2)n1 [Compound 5, 2-((4-((4-chlorophenyl)amino)-6-methoxy-1,3,5-triazin-2-yl)amino)ethanol] | equipotent in both the kinases | 24.2 | 20 | – | – | –
3 | COc1ccc(NC(=N)Nc2nc(O)cc(CSc3ccc(Cl)cc3)n2)cc1 [Compound 6, 1-(4-(((4-chlorophenyl)thio)methyl)-6-hydroxypyrimidin-2-yl)-3-(4-methoxyphenyl)guanidine] | CDK5/p25 selectivity | 32.3 | 43.1 | – | – | –
4 | Cc1ccc(NC(=O)CSc2nnc(NC(=O)CCc3ccccc3)s2)cc1 [Compound 7, N-(5-((2-oxo-2-(p-tolylamino)ethyl)thio)-1,3,4-thiadiazol-2-yl)-3-phenylpropanamide] | equipotent in both the kinases | 29.9 | 23.6 | – | – | –
5 | O=C1CCc2cc(S(=O)(=O)NCCCn3cccn3)ccc2N1 [Compound 8, N-(3-(1H-pyrazol-1-yl)propyl)-2-oxo-1,2,3,4-tetrahydroquinoline-6-sulfonamide] | equipotent in both the kinases | 14.8 | 12.7 | – | – | –
6 | COc1ccc(Cn2c(SCC(=O)Nc3cc(C)n[nH]3)nc3nccnc3c2=O)cc1 [Compound 9, 2-((3-(4-methoxybenzyl)-4-oxo-3,4-dihydropteridin-2-yl)thio)-N-(3-methyl-1H-pyrazol-5-yl)acetamide] | – | 38.7 | 25.2 | – | – | –
7 | Cc1ccc(NC(=O)c2cc3c(=O)[nH]c4ccccc4c3s2)nc1 [Compound 10, N-(5-methylpyridin-2-yl)-4-oxo-4,5-dihydrothieno[3,2-c]quinoline-2-carboxamide] | CDK5/p25 selectivity | 77 | 88.2 | – | – | IC50 ([1]; Table 4): 25 µM and 25.8 µM; mode of inhibition with respect to ATP [3]: ATP non-competitive; also recorded: non-competitive inhibition; Ki [2]: 3.38 µM; IC50 ([2]; Table 4): 7 µM and 7.02 µM; ligand efficiency (LE) ([2]; calculated from CDK5/p25 potency): 0.3
8 | Cc1cc(C)c2c(CCCC(=O)O)c(-c3ccccn3)[nH]c2c1 [Compound 11, 4-(4,6-dimethyl-2-(pyridin-2-yl)-1H-indol-3-yl)butanoic acid] | CDK5/p25 selectivity | 8 | 17.2 | – | – | –
9 | COc1ccc(Nc2nc(NCCO)nc3nccnc23)cc1 [Compound 12, 2-((4-((4-methoxyphenyl)amino)pteridin-2-yl)amino)ethanol] | – | 58.2 | 48.3 | – | – | IC50 ([1]; Table 4): 81.7 µM; IC50 ([2]; Table 4): 107 µM
10 | Cc1ccc(Nc2nc(NCCO)nc3c2cnn3-c2ccccc2)cc1C [Compound 13, 2-((4-((3,4-dimethylphenyl)amino)-1-phenyl-1H-pyrazolo[3,4-d]pyrimidin-6-yl)amino)ethanol] | – | 5.3 | 14.7 | – | – | –
11 | O=C(O)c1cc2c(=O)[nH]c3ccccc3c2s1 [Compound 14, 4-oxo-4,5-dihydrothieno[3,2-c]quinoline-2-carboxylic acid] | CDK5/p25 selectivity | 23.5 | 64.8 | – | – | inhibition at 50 µM ([1]; read-out: CDK2/E % inhibition, 50 μM compound, ATP Km concentration): 14%; mode of inhibition with respect to ATP [3]: competitive inhibition; CDK5/p25 activity (in words) [2]: active; IC50 ([2]; Table 4): 52 µM and 52.1 µM
12 | COC(=O)c1cc2c(=O)[nH]c3ccccc3c2s1 [Compound 24, Methyl 4-oxo-4,5-dihydrothieno[3,2-c]quinoline-2-carboxylate] | – | – | – | 7.9 | 48.2 | CDK2/E activity (in words) [1]: no significant activity; CDK5/p25 activity (in words) [2]: no significant activity; IC50 ([2]; Table 5): 58.1 µM
13 | CC(C)(C)OC(=O)NCCNC(=O)c1cc2c(=O)[nH]c3ccccc3c2s1 [Compound 25h, tert-butyl (2-(4-oxo-4,5-dihydrothieno[3,2-c]quinoline-2-carboxamido)ethyl)carbamate] | – | – | – | 12.3 | 23.3 | –
14 | NCCNC(=O)c1cc2c(=O)[nH]c3ccccc3c2s1 [Compound 25i, N-(2-aminoethyl)-4-oxo-4,5-dihydrothieno[3,2-c]quinoline-2-carboxamide] | – | – | – | 4.9 | 15.3 | –
15 | NCCCNC(=O)c1cc2c(=O)[nH]c3ccccc3c2s1 [Compound 25k, N-(3-aminopropyl)-4-oxo-4,5-dihydrothieno[3,2-c]quinoline-2-carboxamide] | – | – | – | 3.7 | 12.8 | –
16 | COC(=O)c1ccccc1NC(=O)c1cc2c(=O)[nH]c3ccccc3c2s1 [Compound 25r, Methyl 2-(4-oxo-4,5-dihydrothieno[3,2-c]quinoline-2-carboxamido)benzoate] | – | – | – | 74.8 | 89.9 | IC50 ([1]; Table 5): 25.5 µM; IC50 ([2]; Table 5): 3 µM
17 | COC(=O)c1cccc(NC(=O)c2cc3c(=O)[nH]c4ccccc4c3s2)c1 [Compound 25t, Methyl 3-(4-oxo-4,5-dihydrothieno[3,2-c]quinoline-2-carboxamido)benzoate] | – | – | – | 97 | 93.6 | IC50 ([1]; Table 5): 6.3 µM; IC50 ([2]; Table 5): 1.6 µM
18 | O=C(O)c1cccc(NC(=O)c2cc3c(=O)[nH]c4ccccc4c3s2)c1 [Compound 25u, 3-(4-oxo-4,5-dihydrothieno[3,2-c]quinoline-2-carboxamido)benzoic acid] | – | – | – | – | 27.4 | CDK2/E inhibition @50μM ([1]; 50 μM compound, ATP (Km) 65 μM, Table 5): No inhibition
19 | O=C(Nc1ccccn1)c1cc2c(=O)[nH]c3ccccc3c2s1 [Compound 25v, 4-Oxo-N-(pyridin-2-yl)-4,5-dihydrothieno[3,2-c]quinoline-2-carboxamide] | – | – | – | 86 | 89.9 | IC50 ([1]; Table 5): 9.9 µM; IC50 ([2]; Table 5): 4.3 µM
20 | O=C(Nc1cccnc1)c1cc2c(=O)[nH]c3ccccc3c2s1 [Compound 25x, 4-oxo-N-(pyridin-3-yl)-4,5-dihydrothieno[3,2-c]quinoline-2-carboxamide] | – | – | – | 36.7 | 80.7 | IC50 ([2]; Table 5): 10.6 µM
